Measured values as given in patent US20230203043A1, “NOVEL IMIDAZOPYRAZINE DERIVATIVES” (Hoffmann-La Roche Inc., priority 2020, published 2023).
Counter-ions that a name gives are not always drawn.

System: Acinetobacter baumannii ATCC17961
Assay: Antimicrobial susceptibility testing: 90% growth inhibitory concentration (IC90) determination in Iso-Sensitest broth, OD600 growth
Format: cell-based
Settings: Acinetobacter baumannii, ATCC17961, 16 h, read-out: A. baumannii ATCC 17961 IC90 (uM), strain ATCC 17961, OD600 growth over 16 h
Summary of the method: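 Twofold compound dilutions (e.g. 50 to 0.097 μM final) in Iso-Sensitest broth with ~5×10^(5) CFU/ml, 35±2 °C. OD600 read every 20 min over 16 h; IC90 from growth inhibition during logarithmic phase.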

Point of comparison: Cc1cnc(Cn2cc(-c3cnc4c(Nc5ccc(C(=O)N6CCNCC6)c(Cl)c5)nccn34)c(C(F)(F)F)n2)nc1 [Example 160, [2-chloro-4-[[3-[1-[(5-methylpyrimidin-2-yl)methyl]-3-(trifluoromethyl)pyrazol-4-yl]imidazo[1,2-a]pyrazin-8-yl]amino]phenyl]-piperazin-1-ylmethanone formate], IC90 0.63 µM. Against it:
- C#CCn1cc(-c2cnc3c(Nc4ccc(C(=O)NCCCNCCCCNCCCN)c(CC)c4)nccn23)c(C(F)(F)F)n1 [Example 155, N-[3-[4-(3-aminopropylamino)butylamino]propyl]-2-ethyl-4-[[3-[1-prop-2-ynyl-3-(trifluoromethyl)pyrazol-4-yl]imidazo[1,2-a]pyrazin-8-yl]amino]benzamide trifluoroacetate] — within 1.5-fold, 0.585 µM
- COc1ccc(Cn2cc(-c3cnc4c(Nc5ccc(C(=O)N6CCNCC6)c(Cl)c5)nccn34)c(C(F)(F)F)n2)nn1 [Example 159, [2-chloro-4-[[3-[1-[(6-methoxypyridazin-3-yl)methyl]-3-(trifluoromethyl)pyrazol-4-yl]imidazo[1,2-a]pyrazin-8-yl]amino]phenyl]-piperazin-1-ylmethanone formate] — 1.5-fold lower, 0.408 µM
- Cc1ccnc(Cn2cc(-c3cnc4c(Nc5ccc(C(=O)N6CCNCC6)c(Cl)c5)nccn34)c(C(F)(F)F)n2)n1 [Example 161, [2-chloro-4-[[3-[1-[(4-methylpyrimidin-2-yl)methyl]-3-(trifluoromethyl)pyrazol-4-yl]imidazo[1,2-a]pyrazin-8-yl]amino]phenyl]-piperazin-1-ylmethanone formate] — within 1.5-fold, 0.764 µM

Same assay, conditions: Acinetobacter baumannii, ATCC17961, 16 h, strain ATCC 17961, OD600 growth over 16 h, read-out: A. baumannii ATCC 17961 IC90

Point of comparison: CCc1cc(Nc2nccn3c(-c4cn(CC#N)nc4C(F)(F)F)cnc23)ccc1C(=O)NCCOC[C@H](C)N [Example 152, N-[2-[(2S)-2-aminopropoxy]ethyl]-4-[[3-[1-(cyanomethyl)-3-(trifluoromethyl)pyrazol-4-yl]imidazo[1,2-a]pyrazin-8-yl]amino]-2-ethylbenzamide], IC90 0.241 µM. Against it:
- NC1CCN(C(=O)CNC(=O)c2ccc(Nc3nccn4c(-c5c[nH]nc5C(F)(F)F)cnc34)cc2Cl)CC1 [Example 136, N-[2-(4-aminopiperidin-1-yl)-2-oxoethyl]-2-chloro-4-[[3-[3-(trifluoromethyl)-1H-pyrazol-4-yl]imidazo[1,2-a]pyrazin-8-yl]amino]benzamide] — 5.5-fold higher, 1.33 µM
- N[C@@H]1CCN(C(=O)CNC(=O)c2ccc(Nc3nccn4c(-c5c[nH]nc5C(F)(F)F)cnc34)cc2Cl)C1 [Example 137, N-[2-[(3R)-3-aminopyrrolidin-1-yl]-2-oxoethyl]-2-chloro-4-[[3-[3-(trifluoromethyl)-1H-pyrazol-4-yl]imidazo[1,2-a]pyrazin-8-yl]amino]benzamide] — 7.7-fold higher, 1.86 µM
- NC1CC(NC(=O)CNC(=O)c2ccc(Nc3nccn4c(-c5c[nH]nc5C(F)(F)F)cnc34)cc2Cl)C1 (centres unmarked) [Example 138, N-[2-[(3-aminocyclobutyl)amino]-2-oxoethyl]-2-chloro-4-[[3-[3-(trifluoromethyl)-1H-pyrazol-4-yl]imidazo[1,2-a]pyrazin-8-yl]amino]benzamide] — 8.3-fold higher, 2.01 µM
- O=C(CNC(=O)c1ccc(Nc2nccn3c(-c4c[nH]nc4C(F)(F)F)cnc23)cc1Cl)N[C@@H]1CCNC1 [Example 139, 2-chloro-N-[2-oxo-2-[[(3R)-pyrrolidin-3-yl]amino]ethyl]-4-[[3-[3-(trifluoromethyl)-1H-pyrazol-4-yl]imidazo[1,2-a]pyrazin-8-yl]amino]benzamide] — 12-fold higher, 2.8 µM
- NC1CN(C(=O)CNC(=O)c2ccc(Nc3nccn4c(-c5c[nH]nc5C(F)(F)F)cnc34)cc2Cl)C1 [Example 141, N-[2-(3-aminoazetidin-1-yl)-2-oxoethyl]-2-chloro-4-[[3-[3-(trifluoromethyl)-1H-pyrazol-4-yl]imidazo[1,2-a]pyrazin-8-yl]amino]benzamide] — 17-fold higher, 4.05 µM
- N#CCn1cc(-c2cnc3c(Nc4ccc(C(=O)N5CCC(NC(=O)C6CCNCC6)CC5)c(Cl)c4)nccn23)c(C(F)(F)F)n1 [Example 142, N-[1-[2-chloro-4-[[3-[1-(cyanomethyl)-3-(trifluoromethyl)pyrazol-4-yl]imidazo[1,2-a]pyrazin-8-yl]amino]benzoyl]piperidin-4-yl]piperidine-4-carboxamide] — 2.3-fold higher, 0.554 µM
- N#CCn1cc(-c2cnc3c(Nc4ccc(C(=O)N5CCC(NC(=O)[C@@H]6C[C@@H](O)CN6)CC5)c(Cl)c4)nccn23)c(C(F)(F)F)n1 [Example 143, (2S,4R)-N-[1-[2-chloro-4-[[3-[1-(cyanomethyl)-3-(trifluoromethyl)pyrazol-4-yl]imidazo[1,2-a]pyrazin-8-yl]amino]benzoyl]piperidin-4-yl]-4-hydroxypyrrolidine-2-carboxamide] — 2.3-fold higher, 0.555 µM
- CCc1cc(Nc2nccn3c(-c4c[nH]nc4C(F)(F)F)cnc23)ccc1C(=O)N[C@H](C)CN [Example 145, N-[(2R)-1-aminopropan-2-yl]-2-ethyl-4-[[3-[3-(trifluoromethyl)-1H-pyrazol-4-yl]imidazo[1,2-a]pyrazin-8-yl]amino]benzamide trifluoroacetate] — 7.9-fold higher, 1.9 µM
- C#CCn1cc(-c2cnc3c(Nc4ccc(C(=O)NCCOC[C@H](C)N)c(CC)c4)nccn23)c(C(F)(F)F)n1 [Example 147, N-[2-[(2S)-2-aminopropoxy]ethyl]-2-ethyl-4-[[3-[1-prop-2-ynyl-3-(trifluoromethyl)pyrazol-4-yl]imidazo[1,2-a]pyrazin-8-yl]amino]benzamide] — 4.9-fold lower, 0.049 µM
- C#CCn1cc(-c2cnc3c(Nc4ccc(C(=O)NCCOC[C@@H](C)N)c(CC)c4)nccn23)c(C(F)(F)F)n1 [Example 149, N-[2-[(2R)-2-aminopropoxy]ethyl]-2-ethyl-4-[[3-[1-prop-2-ynyl-3-(trifluoromethyl)pyrazol-4-yl]imidazo[1,2-a]pyrazin-8-yl]amino]benzamide] — 2.4-fold lower, 0.102 µM
- CCc1cc(Nc2nccn3c(-c4cn(CCF)nc4C(F)(F)F)cnc23)ccc1C(=O)NCCOC[C@@H](C)N [Example 150, N-[2-[(2R)-2-aminopropoxy]ethyl]-2-ethyl-4-[[3-[1-(2-fluoroethyl)-3-(trifluoromethyl)pyrazol-4-yl]imidazo[1,2-a]pyrazin-8-yl]amino]benzamide] — within 1.5-fold, 0.173 µM
- CCc1cc(Nc2nccn3c(-c4cn(CC(F)F)nc4C(F)(F)F)cnc23)ccc1C(=O)NCCOC[C@@H](C)N [Example 151, N-[2-[(2R)-2-aminopropoxy]ethyl]-4-[[3-[1-(2,2-difluoroethyl)-3-(trifluoromethyl)pyrazol-4-yl]imidazo[1,2-a]pyrazin-8-yl]amino]-2-ethylbenzamide] — within 1.5-fold, 0.204 µM
- CCc1cc(Nc2nccn3c(-c4cn(CC(F)F)nc4C(F)(F)F)cnc23)ccc1C(=O)NCCOC[C@H](C)N [Example 153, N-[2-[(2S)-2-aminopropoxy]ethyl]-4-[[3-[1-(2,2-difluoroethyl)-3-(trifluoromethyl)pyrazol-4-yl]imidazo[1,2-a]pyrazin-8-yl]amino]-2-ethylbenzamide] — within 1.5-fold, 0.311 µM
- O=C(NC1CCN(C(=O)c2ccc(Nc3nccn4c(-c5c[nH]nc5C(F)(F)F)cnc34)cc2Cl)CC1)[C@@H]1C[C@@H](O)CN1 [Example 154, (2S,4R)-N-[1-[2-chloro-4-[[3-[3-(trifluoromethyl)-1H-pyrazol-4-yl]imidazo[1,2-a]pyrazin-8-yl]amino]benzoyl]piperidin-4-yl]-4-hydroxypyrrolidine-2-carboxamide] — 1.6-fold higher, 0.391 µM
- CCc1cc(Nc2nccn3c(-c4cn(CC#N)nc4C(F)(F)F)cnc23)ccc1C(=O)NCCOC[C@@H](C)N [Example 156, N-[2-[(2R)-2-aminopropoxy]ethyl]-4-[[3-[1-(cyanomethyl)-3-(trifluoromethyl)pyrazol-4-yl]imidazo[1,2-a]pyrazin-8-yl]amino]-2-ethylbenzamide] — 2.6-fold higher, 0.627 µM
- O=C(NC1CCN(C(=O)c2ccc(Nc3nccn4c(-c5c[nH]nc5C(F)(F)F)cnc34)cc2Cl)CC1)C1CCNCC1 [Example 157, N-[1-[2-chloro-4-[[3-[3-(trifluoromethyl)-1H-pyrazol-4-yl]imidazo[1,2-a]pyrazin-8-yl]amino]benzoyl]piperidin-4-yl]piperidine-4-carboxamide] — 4-fold higher, 0.969 µM
- CCc1cc(Nc2nccn3c(-c4cn(CCF)nc4C(F)(F)F)cnc23)ccc1C(=O)NCCOC[C@H](C)N [Example 158, N-[2-[(2S)-2-aminopropoxy]ethyl]-2-ethyl-4-[[3-[1-(2-fluoroethyl)-3-(trifluoromethyl)pyrazol-4-yl]imidazo[1,2-a]pyrazin-8-yl]amino]benzamide] — 17-fold higher, 4.03 µM
- O=C(NCC(=O)N1CCNCC1)c1ccc(Nc2nccn3c(-c4c[nH]nc4C(F)(F)F)cnc23)cc1Cl [Example 162, 2-chloro-N-(2-oxo-2-piperazin-1-ylethyl)-4-[[3-[3-(trifluoromethyl)-1H-pyrazol-4-yl]imidazo[1,2-a]pyrazin-8-yl]amino]benzamide] — 5.1-fold higher, 1.22 µM

Same assay, conditions: strain ATCC 17961, OD600 growth over 16 h, read-out: A. baumannii ATCC 17961 IC90

Point of comparison: C=CCn1cc(-c2cnc3c(Nc4ccc(C(=O)NCCOC[C@@H](C)N)c(CC)c4)nccn23)c(C(F)(F)F)n1 [Example 148, N-[2-[(2R)-2-aminopropoxy]ethyl]-2-ethyl-4-[[3-[1-prop-2-enyl-3-(trifluoromethyl)pyrazol-4-yl]imidazo[1,2-a]pyrazin-8-yl]amino]benzamide], IC90 0.084 µM. Against it:
- C[C@H](NC(=O)c1ccc(Nc2nccn3c(-c4c[nH]nc4C(F)(F)F)cnc23)cc1Cl)C(=O)N1CCNCC1 [Example 140, 2-chloro-N-[(2S)-1-oxo-1-piperazin-1-ylpropan-2-yl]-4-[[3-[3-(trifluoromethyl)-1H-pyrazol-4-yl]imidazo[1,2-a]pyrazin-8-ylamino]benzamide formate] — 39-fold higher, 3.31 µM
- O=C(NC1CCN(C(=O)c2ccc(Nc3nccn4c(-c5c[nH]nc5C(F)(F)F)cnc34)cc2Cl)CC1)N[C@H]1CCNC1 [Example 144, 1-[1-[2-choro-4-[[3-[3-(trifluoromethyl)-1H-pyrazol-4-yl]imidazo[1,2-a]pyrazin-8-yl]amino]benzoyl]piperidin-4-yl]-3-[(3S)-pyrrolidin-3-yl]urea] — 4-fold higher, 0.335 µM
